Assay results taken from ChEMBL document CHEMBL3627608, “Crystal structures of human RIP2 kinase catalytic domain complexed with ATP-competitive inhibitors: Foundations for understanding inhibitor selectivity” (Bioorg Med Chem, 2015).

Assays:
[1] = biological target: Tyrosine-protein kinase HCK (Homo sapiens) (UniProt P08631); experiment: Inhibition of HCK (unknown origin) at 10 uM after 120 mins P33 radiolabeled kinase activity assay
[2] = biological target: Homeodomain-interacting protein kinase 3 (Homo sapiens) (UniProt Q9H422); experiment: Inhibition of HIPK3 (unknown origin) at 10 uM after 120 mins P33 radiolabeled kinase activity assay
Homeodomain-interacting protein kinase 3 (Homo sapiens), sequence (Q9H422 whole entry, looked up): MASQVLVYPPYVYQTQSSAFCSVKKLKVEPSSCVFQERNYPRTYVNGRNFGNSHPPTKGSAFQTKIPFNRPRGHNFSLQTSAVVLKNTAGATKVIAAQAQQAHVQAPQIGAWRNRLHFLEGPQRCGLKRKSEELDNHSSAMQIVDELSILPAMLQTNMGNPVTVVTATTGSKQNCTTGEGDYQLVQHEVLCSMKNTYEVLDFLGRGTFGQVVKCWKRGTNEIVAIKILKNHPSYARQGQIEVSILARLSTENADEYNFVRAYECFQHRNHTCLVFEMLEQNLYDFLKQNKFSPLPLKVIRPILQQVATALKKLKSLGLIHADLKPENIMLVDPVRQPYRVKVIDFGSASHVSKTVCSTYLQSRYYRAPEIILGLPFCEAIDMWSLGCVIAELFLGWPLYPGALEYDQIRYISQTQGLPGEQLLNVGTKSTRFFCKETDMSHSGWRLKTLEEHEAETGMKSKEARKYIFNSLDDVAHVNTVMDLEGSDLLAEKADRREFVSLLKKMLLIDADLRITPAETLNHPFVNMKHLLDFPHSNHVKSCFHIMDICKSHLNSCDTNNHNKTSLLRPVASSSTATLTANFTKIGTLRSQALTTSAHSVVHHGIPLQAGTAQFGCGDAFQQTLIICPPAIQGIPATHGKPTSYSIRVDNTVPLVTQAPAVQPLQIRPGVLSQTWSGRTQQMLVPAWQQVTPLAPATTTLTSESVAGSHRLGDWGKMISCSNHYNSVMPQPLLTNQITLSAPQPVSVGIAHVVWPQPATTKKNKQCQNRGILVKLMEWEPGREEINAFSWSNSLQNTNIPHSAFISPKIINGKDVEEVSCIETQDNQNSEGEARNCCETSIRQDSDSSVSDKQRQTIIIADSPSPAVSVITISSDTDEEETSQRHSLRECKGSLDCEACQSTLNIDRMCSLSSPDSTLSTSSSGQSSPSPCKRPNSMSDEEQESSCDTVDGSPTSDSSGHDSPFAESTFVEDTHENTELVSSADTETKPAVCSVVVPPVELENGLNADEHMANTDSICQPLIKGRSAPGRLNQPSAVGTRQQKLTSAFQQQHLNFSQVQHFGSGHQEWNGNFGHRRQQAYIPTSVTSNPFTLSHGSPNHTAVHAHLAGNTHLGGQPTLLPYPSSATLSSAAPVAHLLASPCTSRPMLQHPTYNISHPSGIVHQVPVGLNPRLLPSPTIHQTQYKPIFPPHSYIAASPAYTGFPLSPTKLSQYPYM

[3] = biological target: Leucine-rich repeat serine/threonine-protein kinase 2 (Homo sapiens) (UniProt Q5S007); experiment: Inhibition of LRRK2 (unknown origin) at 10 uM after 120 mins P33 radiolabeled kinase activity assay
[4] = biological target: Proto-oncogene tyrosine-protein kinase ROS (Homo sapiens) (UniProt P08922); experiment: Inhibition of ROS (unknown origin) at 10 uM after 120 mins P33 radiolabeled kinase activity assay
[5] = biological target: T1, Tyrosine-protein kinase receptor TYRO3 (Homo sapiens) (UniProt Q06418); experiment: Inhibition of TYRO3 (unknown origin) at 10 uM after 120 mins P33 radiolabeled kinase activity assay
T1 sequence (whole entry): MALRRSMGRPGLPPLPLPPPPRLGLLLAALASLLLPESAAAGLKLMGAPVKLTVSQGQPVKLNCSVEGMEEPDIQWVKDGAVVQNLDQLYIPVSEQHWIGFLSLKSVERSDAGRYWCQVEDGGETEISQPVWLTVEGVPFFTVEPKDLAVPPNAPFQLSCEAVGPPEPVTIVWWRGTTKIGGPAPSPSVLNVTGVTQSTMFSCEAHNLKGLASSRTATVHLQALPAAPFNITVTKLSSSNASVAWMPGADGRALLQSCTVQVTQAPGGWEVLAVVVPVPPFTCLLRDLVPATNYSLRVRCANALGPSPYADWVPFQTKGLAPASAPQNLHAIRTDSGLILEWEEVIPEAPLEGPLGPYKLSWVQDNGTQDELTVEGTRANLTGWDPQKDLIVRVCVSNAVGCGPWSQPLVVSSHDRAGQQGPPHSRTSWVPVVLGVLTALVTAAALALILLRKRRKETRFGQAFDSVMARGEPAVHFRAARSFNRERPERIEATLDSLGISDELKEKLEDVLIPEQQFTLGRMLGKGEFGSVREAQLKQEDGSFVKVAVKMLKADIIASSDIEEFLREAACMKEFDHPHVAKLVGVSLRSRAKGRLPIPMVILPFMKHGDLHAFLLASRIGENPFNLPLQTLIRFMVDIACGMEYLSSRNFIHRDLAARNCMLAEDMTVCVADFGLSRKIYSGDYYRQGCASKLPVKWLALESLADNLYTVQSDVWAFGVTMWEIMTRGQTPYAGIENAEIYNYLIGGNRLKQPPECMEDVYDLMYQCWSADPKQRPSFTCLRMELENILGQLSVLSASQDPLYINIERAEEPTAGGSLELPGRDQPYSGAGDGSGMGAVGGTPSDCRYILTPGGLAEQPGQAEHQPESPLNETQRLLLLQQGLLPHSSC

[6] = biological target: T2, TGF-beta receptor type-1 (Homo sapiens) (UniProt P36897); experiment: Inhibition of ALK5 (unknown origin) at 10 uM after 120 mins P33 radiolabeled kinase activity assay
T2 sequence (whole entry): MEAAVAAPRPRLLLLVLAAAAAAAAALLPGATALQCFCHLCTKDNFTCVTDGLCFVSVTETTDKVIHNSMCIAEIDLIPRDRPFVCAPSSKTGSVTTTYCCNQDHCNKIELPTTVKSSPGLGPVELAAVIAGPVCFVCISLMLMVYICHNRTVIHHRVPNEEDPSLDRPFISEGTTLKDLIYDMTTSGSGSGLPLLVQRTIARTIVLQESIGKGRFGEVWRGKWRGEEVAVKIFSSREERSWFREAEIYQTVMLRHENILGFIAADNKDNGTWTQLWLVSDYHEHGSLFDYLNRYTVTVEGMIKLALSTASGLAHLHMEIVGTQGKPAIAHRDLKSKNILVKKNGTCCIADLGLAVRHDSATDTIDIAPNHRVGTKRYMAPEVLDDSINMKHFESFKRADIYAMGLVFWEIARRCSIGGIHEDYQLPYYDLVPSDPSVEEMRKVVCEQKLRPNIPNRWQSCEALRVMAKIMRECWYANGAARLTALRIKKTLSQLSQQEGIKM

[7] = biological target: Receptor-interacting serine/threonine-protein kinase 2 (Homo sapiens, UniProt O43353); experiment: Inhibition of full-length FLAG-6His-TEV tagged human RIP2 expressed in Sf9 cells assessed as residence time by fluorescent polarization assay
Receptor-interacting serine/threonine-protein kinase 2, sequence (O43353 whole entry): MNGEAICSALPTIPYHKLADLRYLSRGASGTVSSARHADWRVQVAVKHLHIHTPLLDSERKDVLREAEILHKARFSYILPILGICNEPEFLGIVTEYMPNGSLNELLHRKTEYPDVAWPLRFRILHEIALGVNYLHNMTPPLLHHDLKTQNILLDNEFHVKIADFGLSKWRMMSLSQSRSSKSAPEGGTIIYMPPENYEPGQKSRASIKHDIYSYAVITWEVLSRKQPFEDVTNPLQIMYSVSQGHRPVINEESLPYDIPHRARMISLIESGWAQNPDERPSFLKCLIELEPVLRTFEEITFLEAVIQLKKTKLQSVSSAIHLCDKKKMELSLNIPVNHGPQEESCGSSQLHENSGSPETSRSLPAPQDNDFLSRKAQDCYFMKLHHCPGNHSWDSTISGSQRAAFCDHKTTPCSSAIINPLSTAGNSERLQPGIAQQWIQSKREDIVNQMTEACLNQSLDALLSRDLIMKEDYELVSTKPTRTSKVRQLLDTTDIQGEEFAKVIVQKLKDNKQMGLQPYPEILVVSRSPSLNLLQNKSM

[8] = biological target: T3, Serine/threonine-protein kinase BRSK1 (Homo sapiens) (UniProt Q8TDC3); experiment: Inhibition of BRSK1 (unknown origin) at 10 uM after 120 mins P33 radiolabeled kinase activity assay
T3 sequence (whole entry): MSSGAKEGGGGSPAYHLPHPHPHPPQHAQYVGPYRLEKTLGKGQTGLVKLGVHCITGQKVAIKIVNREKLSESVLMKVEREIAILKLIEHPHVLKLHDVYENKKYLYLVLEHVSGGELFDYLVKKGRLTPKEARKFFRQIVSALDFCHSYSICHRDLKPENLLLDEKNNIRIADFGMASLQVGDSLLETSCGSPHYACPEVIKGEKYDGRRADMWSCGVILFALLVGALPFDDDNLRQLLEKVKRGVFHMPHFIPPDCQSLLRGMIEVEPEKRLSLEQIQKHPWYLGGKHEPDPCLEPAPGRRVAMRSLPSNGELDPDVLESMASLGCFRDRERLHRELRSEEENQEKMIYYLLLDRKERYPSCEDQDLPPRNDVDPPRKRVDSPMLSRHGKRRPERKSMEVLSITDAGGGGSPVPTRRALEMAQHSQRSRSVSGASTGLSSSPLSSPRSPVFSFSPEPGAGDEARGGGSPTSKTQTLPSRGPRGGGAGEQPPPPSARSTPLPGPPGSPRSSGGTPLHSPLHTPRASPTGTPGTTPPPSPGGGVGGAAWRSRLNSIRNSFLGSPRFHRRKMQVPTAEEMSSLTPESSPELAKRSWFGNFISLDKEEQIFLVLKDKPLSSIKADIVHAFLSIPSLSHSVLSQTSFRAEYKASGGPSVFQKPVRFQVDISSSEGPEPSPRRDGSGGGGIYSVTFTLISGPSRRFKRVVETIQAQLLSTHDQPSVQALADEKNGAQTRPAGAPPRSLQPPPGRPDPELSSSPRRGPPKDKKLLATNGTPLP

[9] = biological target: Tyrosine-protein kinase BTK (Homo sapiens) (UniProt Q06187); experiment: Inhibition of BTK (unknown origin) at 10 uM after 120 mins P33 radiolabeled kinase activity assay
Tyrosine-protein kinase BTK (Homo sapiens), sequence (Q06187 whole entry): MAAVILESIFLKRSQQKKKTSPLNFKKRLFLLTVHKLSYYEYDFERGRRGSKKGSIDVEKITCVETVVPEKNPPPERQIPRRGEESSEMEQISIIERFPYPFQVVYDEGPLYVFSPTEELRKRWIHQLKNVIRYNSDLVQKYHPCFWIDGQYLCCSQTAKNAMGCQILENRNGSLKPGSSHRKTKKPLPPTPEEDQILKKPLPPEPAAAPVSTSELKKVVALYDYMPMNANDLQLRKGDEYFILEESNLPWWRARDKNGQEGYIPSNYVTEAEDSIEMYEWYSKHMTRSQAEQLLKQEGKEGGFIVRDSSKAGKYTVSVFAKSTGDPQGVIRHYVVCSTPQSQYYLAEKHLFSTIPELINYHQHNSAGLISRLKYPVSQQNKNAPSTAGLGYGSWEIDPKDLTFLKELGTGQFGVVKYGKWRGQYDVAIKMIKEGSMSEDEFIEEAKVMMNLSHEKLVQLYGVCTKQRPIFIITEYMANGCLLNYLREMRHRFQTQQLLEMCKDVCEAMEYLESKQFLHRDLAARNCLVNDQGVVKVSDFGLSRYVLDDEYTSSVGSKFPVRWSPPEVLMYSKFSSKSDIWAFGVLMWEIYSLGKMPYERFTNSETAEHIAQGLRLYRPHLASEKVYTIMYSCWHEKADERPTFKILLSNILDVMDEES

[10] = biological target: Mast/stem cell growth factor receptor Kit (Homo sapiens) (UniProt P10721); experiment: Inhibition of c-Kit (unknown origin) at 10 uM after 120 mins P33 radiolabeled kinase activity assay
Mast/stem cell growth factor receptor Kit (Homo sapiens), sequence (P10721 whole entry): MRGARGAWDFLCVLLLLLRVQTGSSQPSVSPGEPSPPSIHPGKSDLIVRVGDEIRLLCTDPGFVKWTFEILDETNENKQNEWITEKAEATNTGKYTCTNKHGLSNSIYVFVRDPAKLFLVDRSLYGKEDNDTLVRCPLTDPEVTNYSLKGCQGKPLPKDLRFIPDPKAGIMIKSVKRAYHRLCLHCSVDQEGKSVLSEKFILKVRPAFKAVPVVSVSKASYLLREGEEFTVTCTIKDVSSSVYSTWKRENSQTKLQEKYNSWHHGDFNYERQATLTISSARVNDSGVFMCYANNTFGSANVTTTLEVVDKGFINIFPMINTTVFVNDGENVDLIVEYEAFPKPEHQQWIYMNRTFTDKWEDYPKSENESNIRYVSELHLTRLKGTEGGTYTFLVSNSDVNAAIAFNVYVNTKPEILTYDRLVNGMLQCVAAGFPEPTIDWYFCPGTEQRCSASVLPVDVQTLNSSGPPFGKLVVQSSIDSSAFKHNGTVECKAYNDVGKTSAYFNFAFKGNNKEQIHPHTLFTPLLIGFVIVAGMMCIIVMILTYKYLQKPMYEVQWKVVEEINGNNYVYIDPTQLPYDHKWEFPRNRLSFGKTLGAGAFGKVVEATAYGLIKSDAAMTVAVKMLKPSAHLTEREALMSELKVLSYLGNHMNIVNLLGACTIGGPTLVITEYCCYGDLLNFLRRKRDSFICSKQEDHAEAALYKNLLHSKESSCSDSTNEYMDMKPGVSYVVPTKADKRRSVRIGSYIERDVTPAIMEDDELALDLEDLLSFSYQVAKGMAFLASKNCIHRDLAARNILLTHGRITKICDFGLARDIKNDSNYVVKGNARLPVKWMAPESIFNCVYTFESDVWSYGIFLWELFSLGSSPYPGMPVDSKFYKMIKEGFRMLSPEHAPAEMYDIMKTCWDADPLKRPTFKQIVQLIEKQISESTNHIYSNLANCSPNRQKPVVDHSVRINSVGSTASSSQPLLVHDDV

Tyrosine-protein kinase HCK (Homo sapiens), sequence (P08631 2-526 limits assumed): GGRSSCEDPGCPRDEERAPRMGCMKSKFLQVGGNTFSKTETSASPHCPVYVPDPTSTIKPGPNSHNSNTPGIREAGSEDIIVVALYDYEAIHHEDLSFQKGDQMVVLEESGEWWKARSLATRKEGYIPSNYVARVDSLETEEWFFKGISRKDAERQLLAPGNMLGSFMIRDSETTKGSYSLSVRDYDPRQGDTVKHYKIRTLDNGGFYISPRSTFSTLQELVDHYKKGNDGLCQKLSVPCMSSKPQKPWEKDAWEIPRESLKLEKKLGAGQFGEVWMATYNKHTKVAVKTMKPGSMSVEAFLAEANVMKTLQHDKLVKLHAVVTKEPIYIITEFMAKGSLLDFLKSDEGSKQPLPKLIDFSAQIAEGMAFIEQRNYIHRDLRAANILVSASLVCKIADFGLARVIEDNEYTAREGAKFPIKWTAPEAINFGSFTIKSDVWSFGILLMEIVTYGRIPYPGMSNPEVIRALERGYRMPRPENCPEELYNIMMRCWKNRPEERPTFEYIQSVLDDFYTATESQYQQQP

COCCNC(=O)c1ccc2c(c1)nc(-c1cnc(-c3ccc(Cl)cc3)[nH]1)n2CCOC
inhibition [1]: 70%
inhibition [2]: 3.91%
inhibition [3]: 17.1%
inhibition [4]: 27.9%
inhibition [5]: 12.8%
inhibition [6]: -7.32%
T1/2 [7]: 0.00167 h
inhibition [8]: 18.7%
inhibition [9]: 19.4%
inhibition [10]: 5.79%

CS(=O)(=O)c1cccc(Nc2nccc(-c3sc(N4CCOCC4)nc3-c3cccc(NS(=O)(=O)c4c(F)cccc4F)c3)n2)c1
inhibition [1]: 99.2%
inhibition [2]: 89.4%
inhibition [3]: 63.4%
inhibition [4]: 63.8%
inhibition [5]: 79.5%
inhibition [6]: 69.6%
T1/2 [7]: 1.32 h
inhibition [8]: 49.8%
inhibition [9]: 96%
inhibition [10]: 77.7%

CC(C)(C)c1cc(NC(=O)Nc2ccc(Oc3ccncc3)cc2)no1
inhibition [1]: 91.1%
inhibition [2]: 45.5%
inhibition [3]: 81.5%
inhibition [4]: 88.7%
inhibition [5]: 60.7%
inhibition [6]: -8.74%
T1/2 [7]: 1.42 h
inhibition [8]: 16.8%
inhibition [9]: 20.3%
inhibition [10]: 84.9%
